The supplement of paper PMC10307832

Legend:
Assay in all cases: relative viability (nuclei count vs DMSO), 5 days (fraction); higher = more cells survive
NCI-H322M = test system: NCI-H322M
Method in brief: (§1)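 Lung cancer cell lines, seeded in 1536-well plates, were treated the following day by pin tool with a single drug or with five library-drug doses (not always all listed) in √10 steps on top of a fixed anchor-drug dose. Cells were fixed and nuclei stained in one step after 5 days, and nuclei were counted. Relative viability is the nuclei count for treated wells divided by that for vehicle wells, reported as medians of duplicate plates.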

PC-14 = test system: PC-14
Method in brief: as §1

NCI-H2342 = test system: NCI-H2342
Method in brief: as §1

NCI-H23 = test system: NCI-H23
Method in brief: as §1

EKVX = test system: EKVX
Method in brief: as §1

EMC-BAC-2 = test system: EMC-BAC-2
Method in brief: as §1

LU99A = test system: LU99A
Method in brief: as §1

SW 900 = test system: SW 900
Method in brief: as §1

LCLC-103H = test system: LCLC-103H
Method in brief: as §1

NCI-H2405 = test system: NCI-H2405
Method in brief: as §1

RERF-LC-KJ = test system: RERF-LC-KJ
Method in brief: as §1

CC(=O)O[C@@]12CO[C@@H]1C[C@H](O)[C@@]1(C)C(=O)[C@H](O)C3=C(C)[C@@H](OC(=O)[C@H](O)[C@@H](NC(=O)OC(C)(C)C)c4ccccc4)C[C@@](O)([C@@H](OC(=O)c4ccccc4)[C@H]21)C3(C)C [Docetaxel] + Nc1ncn([C@H]2C[C@H](O)[C@@H](CO)O2)c(=O)n1 [Decitabine] (partner 2 µM)
relative viability (NCI-H322M; first compound 0.002 µM): 0.613 | relative viability (NCI-H322M; first compound 0.006325 µM): 0.653 | relative viability (NCI-H322M; first compound 0.02 µM): 0.553 | relative viability (PC-14; first compound 0.0002 µM): 0.175 | relative viability (PC-14; first compound 0.000632 µM): 0.107 | relative viability (PC-14; first compound 0.002 µM): 0.0764 | relative viability (PC-14; first compound 0.006325 µM): 0.0588 | relative viability (PC-14; first compound 0.02 µM): 0.0313 | relative viability (NCI-H2342; first compound 0.0002 µM): 0.72 | relative viability (NCI-H2342; first compound 0.000632 µM): 0.72 | relative viability (NCI-H2342; first compound 0.002 µM): 0.583 | relative viability (NCI-H2342; first compound 0.006325 µM): 0.519 | relative viability (NCI-H2342; first compound 0.02 µM): 0.489 | relative viability (NCI-H23; first compound 0.0002 µM): 0.33 | relative viability (NCI-H23; first compound 0.000632 µM): 0.303 | relative viability (NCI-H23; first compound 0.002 µM): 0.253 | relative viability (NCI-H23; first compound 0.006325 µM): 0.256 | relative viability (NCI-H23; first compound 0.02 µM): 0.157 | relative viability (EKVX; first compound 0.0002 µM): 0.279 | relative viability (EKVX; first compound 0.000632 µM): 0.327 | relative viability (EKVX; first compound 0.002 µM): 0.26 | relative viability (EKVX; first compound 0.006325 µM): 0.198 | relative viability (EKVX; first compound 0.02 µM): 0.134 | relative viability (EMC-BAC-2; first compound 0.0002 µM): 0.947 | relative viability (EMC-BAC-2; first compound 0.000632 µM): 0.811 | relative viability (EMC-BAC-2; first compound 0.002 µM): 0.461 | relative viability (EMC-BAC-2; first compound 0.006325 µM): 0.46 | relative viability (EMC-BAC-2; first compound 0.02 µM): 0.299 | relative viability (LU99A; first compound 0.0002 µM): 0.87 | relative viability (LU99A; first compound 0.000632 µM): 0.872 | relative viability (LU99A; first compound 0.002 µM): 0.466 | relative viability (LU99A; first compound 0.006325 µM): 0.363 | relative viability (LU99A; first compound 0.02 µM): 0.204 | relative viability (SW 900; first compound 0.0002 µM): 0.485 | relative viability (SW 900; first compound 0.000632 µM): 0.344 | relative viability (SW 900; first compound 0.002 µM): 0.323 | relative viability (SW 900; first compound 0.006325 µM): 0.296 | relative viability (SW 900; first compound 0.02 µM): 0.212 | relative viability (LCLC-103H; first compound 0.0002 µM): 0.712 | relative viability (LCLC-103H; first compound 0.000632 µM): 0.796 | relative viability (LCLC-103H; first compound 0.002 µM): 0.761 | relative viability (LCLC-103H; first compound 0.006325 µM): 0.713 | relative viability (LCLC-103H; first compound 0.02 µM): 0.524 | relative viability (NCI-H2405; first compound 0.0002 µM): 0.724 | relative viability (NCI-H2405; first compound 0.000632 µM): 0.75 | relative viability (NCI-H2405; first compound 0.002 µM): 0.663 | relative viability (NCI-H2405; first compound 0.006325 µM): 0.498 | relative viability (NCI-H2405; first compound 0.02 µM): 0.341 | relative viability (RERF-LC-KJ; first compound 0.0002 µM): 0.716 | relative viability (RERF-LC-KJ; first compound 0.000632 µM): 0.542 | relative viability (RERF-LC-KJ; first compound 0.002 µM): 0.232 | relative viability (RERF-LC-KJ; first compound 0.02 µM): 0.146
